Source: ChEMBL document CHEMBL1201862, “PubChem BioAssay data set” (2004)
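All cell lines were grown in 96-well plates and treated with compound for 48 hours. Abbreviation: GI50, concentration required for 50% inhibition of growth.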 The source made the active and inactive calls. Rule as the data show it: active = GI50 up to about 1.1 µM and inactive = higher.

Experiments:
Test in all cases: inhibition of tumour cell growth, NCI panel, 48 h
DLD-1 = tested on: DLD-1
DMS-114 = tested on: DMS-114
DMS-273 = tested on: DMS-273
M19-MEL = tested on: M19-MEL
HOP-18 = tested on: HOP-18
SNB-78 = tested on: SNB-78
XF498 = tested on: XF498
KM-20L2 = tested on: KM-20L2
RXF 631 = tested on: RXF 631

Structure (SMILES)	GI50 (DLD-1)	GI50 (DMS-114)	GI50 (DMS-273)	GI50 (M19-MEL)	GI50 (HOP-18)	GI50 (SNB-78)	GI50 (XF498)	GI50 (KM-20L2)	GI50 (RXF 631)
COc1ccc(C2S/C(=C\c3ccc(OC)cc3OC)C(=O)N2NC(=O)Cc2ccccc2)cc1 (configuration not stated)	> 100 µM (inactive)	> 100 µM (inactive)	> 100 µM (inactive)	> 100 µM (inactive)	> 100 µM (inactive)				
O=C(NC(=O)c1cn(CCNCCO)c(=O)[nH]c1=O)OCc1ccccc1	> 100 µM (inactive)	> 100 µM (inactive)		> 100 µM (inactive)	< 0.01 µM (active)	> 100 µM (inactive)			
CC1=C(N2CC2)C(=O)c2nc3n(c2C1=O)CCC3OC(=O)CCl (configuration not stated)	0.101 µM (active)	0.171 µM (active)	0.049 µM (active)	0.0817 µM (active)	0.043 µM (active)	0.193 µM (active)	0.0301 µM (active)	0.131 µM (active)	
COC(=O)CCC(NC(=S)N/N=C(\C)c1ccccn1)C(=O)OC (configuration not stated)	43 µM (inactive)	20.6 µM (inactive)		37.2 µM (inactive)	41.4 µM (inactive)		> 100 µM (inactive)	32.4 µM (inactive)	34.1 µM (inactive)
CC(=O)O[C@H]1CC[C@@]2(C)C(=CC[C@@H]3C2CC[C@]2(C)Nc4nc5ccccc5cc4CC32)C1 (some centres not stated)	3.72 µM (inactive)	5.4 µM (inactive)	4.82 µM (inactive)	3.59 µM (inactive)	3.94 µM (inactive)	6.01 µM (inactive)	5.89 µM (inactive)	1.77 µM (inactive)	
CC1CCC(C(C)(C)c2ccccc2)C(=O)C1 (configuration not stated)	> 100 µM (inactive)	75.7 µM (inactive)	> 100 µM (inactive)	> 100 µM (inactive)	24.8 µM (inactive)	> 100 µM (inactive)	> 100 µM (inactive)	> 100 µM (inactive)	
O=C1c2c(c(-c3ccccc3)c(-c3ccccc3)c(-c3ccccc3)c2-c2ccccc2)C(=O)N1c1cccc(Br)c1	> 100 µM (inactive)	> 100 µM (inactive)	> 100 µM (inactive)	> 100 µM (inactive)	> 100 µM (inactive)	> 100 µM (inactive)	> 100 µM (inactive)	> 100 µM (inactive)	
CCN1C(=O)C(=CN)C(=O)N(CC)C1=O	> 100 µM (inactive)	> 100 µM (inactive)	> 100 µM (inactive)	> 100 µM (inactive)	24.7 µM (inactive)	> 100 µM (inactive)		> 100 µM (inactive)	> 100 µM (inactive)
Cc1ccc(S(=O)(=O)N/N=C/c2oc(-c3ccncc3)c(-c3ccncc3)c2[N+](=O)[O-])cc1	> 100 µM (inactive)		> 100 µM (inactive)	> 100 µM (inactive)	> 100 µM (inactive)	> 100 µM (inactive)	> 100 µM (inactive)	> 100 µM (inactive)	> 100 µM (inactive)
CC(=O)N1c2ccccc2N(C(C)=O)C1c1ccc(C2N(C(C)=O)c3ccccc3N2C(C)=O)[nH]1		> 100 µM (inactive)	> 100 µM (inactive)	> 100 µM (inactive)			> 100 µM (inactive)	> 100 µM (inactive)	> 100 µM (inactive)
CCCCC(=O)OCC(=O)[C@]1(O)Cc2c(O)c3c(c(O)c2[C@@H](OC2CC(NC(=O)C(F)(F)F)C(O)C(C)O2)C1)C(=O)c1c(OC)cccc1C3=O (some centres not stated)	0.538 µM (active)	0.268 µM (active)	0.138 µM (active)	0.331 µM (active)			0.161 µM (active)	2.19 µM (inactive)	0.682 µM (active)
CN(C)CCONC(=O)C12CC3CC(CC(C3)C1)C2	> 100 µM (inactive)	> 100 µM (inactive)		> 100 µM (inactive)		26.2 µM (inactive)	> 100 µM (inactive)	> 100 µM (inactive)	> 100 µM (inactive)
CCOc1ccc(NCc2cc(OC)c(OC)c(OC)c2)cc1	1.11 µM (active)	0.287 µM (active)						0.475 µM (active)	
CCc1cccc(C(C)CC)c1/N=C(/NC(=O)c1ccccc1C(=O)N/C(=N/c1c(CC)cccc1C(C)CC)SC)SC (configuration not stated)	58.5 µM (inactive)			51.4 µM (inactive)	26.8 µM (inactive)	21.5 µM (inactive)	48.4 µM (inactive)	28.4 µM (inactive)	51.2 µM (inactive)
Clc1ccc(OCc2nnc3n2N=C(c2ccc(Br)cc2)CS3)cc1	> 10 µM (inactive)	13.1 µM (inactive)	29.8 µM (inactive)	23.6 µM (inactive)		21.5 µM (inactive)	4.24 µM (inactive)		> 10 µM (inactive)
